Source: publication PMC5839340 (Biochemistry, 2018)

What was measured:
[1] = molecular target: Hsc70 C17W (Mus musculus, UniProt P63017, C17W); experiment: DRaCALA with [α-32P]ATP; format: binding
[2] = molecular target: Hsc70 (Mus musculus, UniProt P63017); experiment: DRaCALA with [α-32P]ATP; format: binding
Chain of Hsc70 (P63017 5-554): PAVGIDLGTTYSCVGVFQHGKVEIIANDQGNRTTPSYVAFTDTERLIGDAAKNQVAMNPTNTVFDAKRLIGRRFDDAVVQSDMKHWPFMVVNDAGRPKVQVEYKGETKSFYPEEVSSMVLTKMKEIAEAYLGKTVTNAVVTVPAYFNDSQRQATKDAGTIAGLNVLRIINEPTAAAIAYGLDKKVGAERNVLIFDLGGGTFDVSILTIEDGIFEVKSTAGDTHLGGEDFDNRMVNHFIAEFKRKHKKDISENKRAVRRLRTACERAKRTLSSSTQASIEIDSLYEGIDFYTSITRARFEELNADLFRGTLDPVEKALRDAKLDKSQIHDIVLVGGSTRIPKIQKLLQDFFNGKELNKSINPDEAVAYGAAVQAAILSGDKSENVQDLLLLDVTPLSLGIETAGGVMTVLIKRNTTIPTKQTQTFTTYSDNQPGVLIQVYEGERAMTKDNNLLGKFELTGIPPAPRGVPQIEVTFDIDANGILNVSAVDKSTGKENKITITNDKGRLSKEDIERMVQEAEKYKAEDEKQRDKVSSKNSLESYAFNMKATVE

Chain of Hsc70 C17W (P63017 5-554 C17W): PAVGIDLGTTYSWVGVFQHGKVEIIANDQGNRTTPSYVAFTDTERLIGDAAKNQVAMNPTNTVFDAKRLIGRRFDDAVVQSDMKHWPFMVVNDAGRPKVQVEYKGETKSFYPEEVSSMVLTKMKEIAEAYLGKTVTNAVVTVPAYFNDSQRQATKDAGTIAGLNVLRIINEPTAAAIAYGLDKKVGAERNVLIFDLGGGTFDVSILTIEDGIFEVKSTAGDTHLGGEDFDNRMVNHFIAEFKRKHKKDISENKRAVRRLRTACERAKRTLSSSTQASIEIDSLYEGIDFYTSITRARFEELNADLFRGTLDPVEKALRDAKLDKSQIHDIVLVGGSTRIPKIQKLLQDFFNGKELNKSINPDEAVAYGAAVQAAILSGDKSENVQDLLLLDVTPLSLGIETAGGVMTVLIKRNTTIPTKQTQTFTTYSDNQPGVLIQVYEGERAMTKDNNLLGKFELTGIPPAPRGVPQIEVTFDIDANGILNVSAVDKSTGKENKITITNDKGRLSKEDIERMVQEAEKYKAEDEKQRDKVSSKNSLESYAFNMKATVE

With `Nc1ncnc2c1ncn2[C@@H]1O[C@H](COP(=O)(O)OP(=O)(O)OP(=O)(O)O)[C@@H](O)[C@H]1O` [ATP] the Kd [1] was 160 ± 60 nM and the Kd [2] was 210 ± 40 nM.
